For the data set the following is noted: Crystal; visual observation.

± gives the expanded uncertainty stated by the source.

As to `CCCCn1cc[n+](C)c1.[Cl-]` [1-butyl-3-methylimidazolium chloride], the Normal melting temperature is 67.0 ± 2 °C.

Values taken from the NIST ThermoML archive (doi:10.1016/j.fluid.2005.11.015).
